Data on four molecules can be found in patent US20090099133A1, “Isoquinolines Derivatives as Igf-1R Inhibitors” (priority 2005, published 2009).

Converted amounts (≈) assume the structure as drawn. Structures can show the parent of a compound that is named as a salt. Where two headings read alike, the source gives them in different places.

A word on the solubility: it is the dissolved amount per volume that the medium holds. As usually defined, the melting point is the temperature, or range, at which the solid turns liquid. As a reminder, the half-life is the time needed for the level to fall by half in the phase considered.

Series [1] deals with phospho-MAPK (Erk1/2) in DU-145 cells. Nature of the series: Inhibition of IGF-1 stimulated phosphorylation of MAPK in DU-145 cells (immunoblotting). The following applies: Homo sapiens. The class given is cell-based. The protocol:
(§1) DU-145 cells (prostate cancer) were incubated over night with the title compound in serum free medium. After stimulation for 15 minutes with IGF-1 (50 nM), the cells were lyzed and the lysates analysed by immunoblotting for phospho-MAPK and phospho-AKT.
Background: Immunoblotting shows a protein as a band on a membrane.

Series [2] relates to phospho-AKT in DU-145 cells. Kind of series: Inhibition of IGF-1 stimulated phosphorylation of AKT in DU-145 cells (immunoblotting). The series is classed as cell-based. The following applies: Homo sapiens, 0.25 h, incubated over night in serum free medium, IGF-1 (50 nM) stimulation 15 minutes. The protocol: as §1
Series [3] can be described thus: Solubility in a physiologically acceptable buffer (sodium phosphate buffer, pH 7.4). The class given is physicochemical. The following applies: sodium phosphate buffer at pH 7.4. The text has this:
The corresponding solubility of the parent compound is about 20 microgram.

The next series concerns the target T1, alkaline phosphatase (Bos taurus, UniProt P19111).
T1 construct: purchased Sigma-Aldrich type VII S
Nature of the series: Dephosphorylation by alkaline phosphatase in vitro. The conditions noted are these: bovine, bovine alkaline phosphatase (type VII S, Sigma-Aldrich); phosphatase concentration of 10 units/ml, 37° C., pH 7.4; read-out: half-life time of dephosphorylation. The series is classed as in vitro ADME. The text has this: The ability of bovine alkaline phosphatase (type VII S, Sigma-Aldrich) to dephosphorylate the title compound was investigated in vitro. […] Intravenous administration of the title compound is consequently expected to result in a rapid formation of the active moiety (1R)-1-(3,4,5-trimethoxyphenyl)-2-formyl-5-hydroxy-6-methoxy-1,2,3,4-tetrahydroisoquinoline (see FIG. 1).

T1 sequence (P19111 20-506 limits assumed): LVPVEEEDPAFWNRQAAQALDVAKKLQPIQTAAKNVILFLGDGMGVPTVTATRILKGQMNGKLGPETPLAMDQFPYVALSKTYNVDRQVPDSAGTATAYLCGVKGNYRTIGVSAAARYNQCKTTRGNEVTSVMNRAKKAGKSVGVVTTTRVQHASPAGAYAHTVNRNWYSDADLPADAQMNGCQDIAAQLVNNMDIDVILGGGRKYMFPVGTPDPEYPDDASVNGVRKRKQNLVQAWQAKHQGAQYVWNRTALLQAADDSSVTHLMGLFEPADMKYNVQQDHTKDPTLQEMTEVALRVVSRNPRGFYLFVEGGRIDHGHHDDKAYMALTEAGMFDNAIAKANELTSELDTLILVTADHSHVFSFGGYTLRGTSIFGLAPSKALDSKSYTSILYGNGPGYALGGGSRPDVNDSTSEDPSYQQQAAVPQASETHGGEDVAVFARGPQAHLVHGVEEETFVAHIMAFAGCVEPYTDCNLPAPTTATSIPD

Consider `COc1cc([C@@H]2c3cc4c(cc3[C@H](O)[C@H]3COC(=O)[C@@H]23)OCO4)cc(OC)c1OC` [Picropodophyllin, reference compound], for which the IC50 in series [1] (standard, read-out: IC50 inhibition of phospho-MAPK (Erk1/2)) was roughly 5000 nM.

The molecule `COc1ccc2c(c1O)CCN(C=O)[C@@H]2c1cc(OC)c(OC)c(OC)c1` [(1R)-1-(3,4,5-trimethoxyphenyl)-2-formyl-5-hydroxy-6-methoxy-1,2,3,4-tetrahydroisoquinoline] returned a melting point of 190 to 192 °C. Moreover, the IC50 in series [2] came to 40 nM. Also, the solubility in series [3] (aqueous buffer, parent compound, read-out: solubility) was roughly 20 µg/mL (≈ 53.6 µM). The solubility entry in series [3] (parent compound) is listed as “about 20 microgram”. Besides, the IC50 in series [1] (0.25 h, incubated over night in serum free medium, IGF-1 (50 nM) stimulation 15 minutes, read-out: IC50 inhibition of phosphorylation of MAPK (Erk1/2)) is 50 nM.

As to `COc1cc([C@@H]2c3ccc(OC)c(OP(=O)(O)O)c3CCN2C=O)cc(OC)c1OC` [(1R)-1-(3,4,5-trimethoxyphenyl)-2-formyl-5-(dihydrogen phosphate)-6-methoxy-1,2,3,4-tetrahydroisoquinoline], in series [3] (aqueous buffer, read-out: solubility), the solubility is greater than 50000 µg/mL. The half-life at alkaline phosphatase was 8 min.

`COc1cc([C@@H]2c3ccc(OC)c(OP(=O)(O)O)c3CCN2C=O)cc(OC)c1OC` (as salt: phosphate) [(1R)-1-(3,4,5-trimethoxyphenyl)-2-formyl-5-(dihydrogen phosphate)-6-methoxy-1,2,3,4-tetrahydroisoquinoline]: the melting point is 138 to 141 °C.
